This is an account of results in patent publication US10800791B2, “Triazole ACC inhibitors and uses thereof” (Gilead Apollo, LLC, priority 2015, dated 2020).

≈ marks a conversion by molar mass, not a printed value. Read-outs that look alike come from different tables or passages of the source. A value given as a limit tells only on which side of the number the result lay.

Assay type in all cases: cell-based
Assay [1] deals with Collectotrichum graminicola (Cg). Nature of the assay: Growth inhibition assay of fungal pathogens, Cg. To be noted: 48 h. The gist of the method:
(§1)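 Percent inhibition derived at 48 hours from OD600 and visual scores versus 2% DMSO control, with media+DMSO blank as background. Spore inocula in 17% V8 medium were sized from 48 h growth curves; compounds tested at final 50/10/2 or 2/0.4/0.08 ppm.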

Assay [2] concerns Fusarium moniliforme (Fm). Nature of the assay: Growth inhibition assay of fungal pathogens, Fm. To be noted: for IC90: Fusarium verticillioides, 48 h, read-out: Concentration at 90% Inhibition Fm. An outline of the steps:
as §1

The test system of assay [3] is Septoria tritici (St). Nature of the assay: Growth inhibition assay of fungal pathogens, St. To be noted: Zymoseptoria tritici, 48 h. An outline of the steps:
as §1

Setting [4] is: read-out: Concentration at 90% Inhibition Cg, Collectotrichum graminicola, growth inhibition at 48 hours vs 2% DMSO control.
[5] abbreviates: read-out: Concentration at 90% Inhibition Cg, Collectotrichum graminicola, growth inhibition vs 2% DMSO control at 48 hours.
The mark [6] stands for this setting: Fusarium moniliforme, growth inhibition at 48 hours vs 2% DMSO control.
Setting [7] is: read-out: Concentration at 90% Inhibition St, Septoria tritici, growth inhibition at 48 hours vs 2% DMSO control.
Where [8] appears, read: read-out: Concentration at 90% Inhibition St, Septoria tritici, growth inhibition vs 2% DMSO control at 48 hours.
Where [9] appears, read: Collectotrichum graminicola, growth inhibition at 48 hours vs 2% DMSO control, read-out: Concentration at 90% Inhibition Cg.
The mark [10] stands for this setting: Collectotrichum graminicola, growth inhibition vs 2% DMSO control at 48 hours, read-out: Concentration at 90% Inhibition Cg.
[11] abbreviates: Fusarium moniliforme, growth inhibition vs 2% DMSO control at 48 hours.
[12] abbreviates: Septoria tritici, growth inhibition at 48 hours vs 2% DMSO control, read-out: Concentration at 90% Inhibition St.
[13] abbreviates: Septoria tritici, growth inhibition vs 2% DMSO control at 48 hours, read-out: Concentration at 90% Inhibition St.

As for `C=CCO[C@@H](Cn1c(=O)n(C(C)(C)C(=O)NC(C)C)c(=O)c2c(C)c(-n3nccn3)sc21)c1cc(F)ccc1OC` [Compound I-72, (R)-2-(1-(2-(allyloxy)-2-(5-fluoro-2-methoxyphenyl)ethyl)-5-methyl-2,4-dioxo-6-(2H-1,2,3-triazol-2-yl)-1,4-dihydrothieno[2,3-d]pyrimidin-3(2H)-yl)-N-isopropyl-2-methylpropanamide], the IC90 in assay [1] (setting [4]) is 2 µg/mL (≈ 3.42 µM); in assay [1] (setting [5]), 2 µg/mL (≈ 3.42 µM); in assay [2] it was 0.08 µg/mL (≈ 0.137 µM); in assay [3] (setting [7]) it was > 50 µg/mL; in assay [3] (setting [8]) it was > 50 µg/mL. Besides, the “Concentration at 90% Inhibition Fm” value in assay [2] (setting [6]) was “AA (compound concentration of 0.08 ppm at 90% inhibition of fungal pathogens)”.
As for `COc1ccc(F)cc1[C@H](Cn1c(=O)n(C(C)(C)C(=O)NC2CC2)c(=O)c2c(C)c(-n3nccn3)sc21)OC(C)C` [Compound I-73, (R)—N-cyclopropyl-2-(1-(2-(5-fluoro-2-methoxyphenyl)-2-isopropoxyethyl)-5-methyl-2,4-dioxo-6-(2H-1,2,3-triazol-2-yl)-1,4-dihydrothieno[2,3-d]pyrimidin-3(2H)-yl)-2-methylpropanamide], the IC90 in assay [1] (setting [9]) is 2 µg/mL (≈ 3.42 µM); in assay [1] (setting [10]) it was 2 µg/mL (≈ 3.42 µM); in assay [2] (setting [6]) it was 0.08 µg/mL (≈ 0.137 µM); in assay [2] (setting [11]) it was 0.08 µg/mL (≈ 0.137 µM); in assay [3] (setting [12]) it was > 50 µg/mL; in assay [3] (setting [13]), > 50 µg/mL.
As to `COc1ccc(F)cc1[C@H](Cn1c(=O)n(C(C)(C)C(=O)N2CCCC2)c(=O)c2c(C)c(-n3nccn3)sc21)OCCN(C)C` [Compound I-75, (R)-1-(2-(2-(dimethylamino)ethoxy)-2-(5-fluoro-2-methoxyphenyl)ethyl)-5-methyl-3-(2-methyl-1-oxo-1-(pyrrolidin-1-yl)propan-2-yl)-6-(2H-1,2,3-triazol-2-yl)thieno[2,3-d]pyrimidine-2,4(1H,3H)-dione], the IC90 in assay [1] (setting [9]), in assay [1] (setting [10]), in assay [2] (setting [6]), in assay [2] (setting [11]), in assay [3] (setting [12]) and in assay [3] (setting [13]) was > 50 µg/mL throughout.
Take `COc1ccc(F)cc1[C@H](Cn1c(=O)n(C(C)(C)C(=O)NC(C)C)c(=O)c2c(C)c(-n3nccn3)sc21)OCCN(C)C` [Compound I-76, (R)-2-(1-(2-(2-(dimethylamino)ethoxy)-2-(5-fluoro-2-methoxyphenyl)ethyl)-5-methyl-2,4-dioxo-6-(2H-1,2,3-triazol-2-yl)-1,4-dihydro-thieno[2,3-d]pyrimidin-3(2H)-yl)-N-isopropyl-2-methylpropanamide]: the IC90 in assay [1] (setting [4]), in assay [1] (setting [5]), in assay [2], in assay [3] (setting [7]) and in assay [3] (setting [8]) was > 50 µg/mL in each case. Besides, in assay [2] (setting [6]), the “Concentration at 90% Inhibition Fm” value is recorded as “D (compound concentration of >50 ppm at 90% inhibition of fungal pathogens)”.
Take `COc1ccc(F)cc1[C@H](Cn1c(=O)n([C@@H](C)C(=O)NC2CCC2)c(=O)c2c(C)c(-n3nccn3)sc21)OCCO` [Compound I-77, (S)—N-cyclobutyl-2-(1-((R)-2-(5-fluoro-2-methoxyphenyl)-2-(2-hydroxyethoxy)ethyl)-5-methyl-2,4-dioxo-6-(2H-1,2,3-triazol-2-yl)-1,4-dihydrothieno[2,3-d]pyrimidin-3(2H)-yl)propanamide]: the IC90 in assay [1] (setting [9]) is 2 µg/mL (≈ 3.41 µM); in assay [1] (setting [10]) it was 10 µg/mL (≈ 17 µM); in assay [2] (setting [6]), 0.08 µg/mL (≈ 0.136 µM); in assay [2] (setting [11]), 0.08 µg/mL (≈ 0.136 µM); in assay [3] (setting [12]), > 50 µg/mL; in assay [3] (setting [13]), > 50 µg/mL.
For the compound `COc1ccc(F)cc1[C@H](Cn1c(=O)n([C@@H](C)C(=O)N(C)C(C)C)c(=O)c2c(C)c(-n3nccn3)sc21)OCCO` [Compound I-78, (S)-2-(1-((R)-2-(5-fluoro-2-methoxyphenyl)-2-(2-hydroxy-ethoxy)ethyl)-5-methyl-2,4-dioxo-6-(2H-1,2,3-triazol-2-yl)-1,4-dihydrothieno[2,3-d]pyrimidin-3(2H)-yl)-N-isopropyl-N-methylpropanamide], the IC90 is 0.4 µg/mL (≈ 0.68 µM) in assay [1] (setting [9]); 0.4 µg/mL (≈ 0.68 µM) in assay [1] (setting [10]); 0.08 µg/mL (≈ 0.136 µM) in assay [2] (setting [6]); 0.08 µg/mL (≈ 0.136 µM) in assay [2] (setting [11]); 10 µg/mL (≈ 17 µM) in assay [3] (setting [12]); > 50 µg/mL in assay [3] (setting [13]).
`COCCO[C@@H](Cn1c(=O)n(CC(=O)N2CCCC2)c(=O)c2c(C)c(-n3nccn3)sc21)c1cc(F)ccc1OC` [Compound I-79, (R)-1-(2-(5-fluoro-2-methoxyphenyl)-2-(2-methoxy-ethoxy)ethyl)-5-methyl-3-(2-oxo-2-(pyrrolidin-1-yl)ethyl)-6-(2H-1,2,3-tria-zol-2-yl)thieno[2,3-d]pyrimidine-2,4(1H,3H)-dione]: the IC90 is 2 µg/mL (≈ 3.41 µM) in assay [1] (setting [9]); 10 µg/mL (≈ 17 µM) in assay [1] (setting [10]); 0.4 µg/mL (≈ 0.682 µM) in assay [2] (setting [6]); 0.4 µg/mL (≈ 0.682 µM) in assay [2] (setting [11]); > 50 µg/mL in assay [3] (setting [12]); > 50 µg/mL in assay [3] (setting [13]).
As to `COCCO[C@@H](Cn1c(=O)n(CC(=O)NC(C)C)c(=O)c2c(C)c(-n3nccn3)sc21)c1cc(F)ccc1OC` [Compound I-80, (R)-2-(1-(2-(5-fluoro-2-methoxyphenyl)-2-(2-methoxy-ethoxy)ethyl)-5-methyl-2,4-dioxo-6-(2H-1,2,3-triazol-2-yl)-1,4-dihydro-thieno[2,3-d]pyrimidin-3(2H)-yl)-N-isopropylacetamide], the IC90 in assay [1] (setting [4]) was > 50 µg/mL; in assay [1] (setting [5]), > 50 µg/mL; in assay [2] it was 0.08 µg/mL (≈ 0.139 µM); in assay [3] (setting [7]) it was > 50 µg/mL; in assay [3] (setting [8]) it was > 50 µg/mL. The “Concentration at 90% Inhibition Fm” value in assay [2] (setting [6]) is listed as “AA (compound concentration of 0.08 ppm at 90% inhibition of fungal pathogens)”.
On to `COc1ccc(F)cc1[C@H](Cn1c(=O)n(CC(=O)N2CCCC2)c(=O)c2c(C)c(-n3nccn3)sc21)OCCO` [Compound I-81, (R)-1-(2-(5-fluoro-2-methoxyphenyl)-2-(2-hydroxy-ethoxy)ethyl)-5-methyl-3-(2-oxo-2-(pyrrolidin-1-yl)ethyl)-6-(2H-1,2,3-triazol-2-yl)thieno[2,3-d]pyrimidine-2,4(1H,3H)-dione], for which the IC90 was 2 µg/mL (≈ 3.49 µM) in assay [1] (setting [9]); 2 µg/mL (≈ 3.49 µM) in assay [1] (setting [10]); 0.08 µg/mL (≈ 0.14 µM) in assay [2] (setting [6]); 0.08 µg/mL (≈ 0.14 µM) in assay [2] (setting [11]); > 50 µg/mL in assay [3] (setting [12]); > 50 µg/mL in assay [3] (setting [13]).
For the compound `COc1ccc(F)cc1[C@H](Cn1c(=O)n(CC(=O)NC(C)C)c(=O)c2c(C)c(-n3nccn3)sc21)OCCO` [Compound I-82, (R)-2-(1-(2-(5-fluoro-2-methoxyphenyl)-2-(2-hydroxy-ethoxy)ethyl)-5-methyl-2,4-dioxo-6-(2H-1,2,3-triazol-2-yl)-1,4-dihydro-thieno[2,3-d]pyrimidin-3(2H)-yl)-N-isopropylacetamide], the IC90 in assay [1] (setting [4]) is 2 µg/mL (≈ 3.57 µM); in assay [1] (setting [5]), 2 µg/mL (≈ 3.57 µM); in assay [2] it was 0.08 µg/mL (≈ 0.143 µM); in assay [3] (setting [7]), > 50 µg/mL; in assay [3] (setting [8]) it was > 50 µg/mL. In addition, the “Concentration at 90% Inhibition Fm” value in assay [2] (setting [6]) was “AA (compound concentration of 0.08 ppm at 90% inhibition of fungal pathogens)”.
As to `COc1ccc(F)cc1[C@H](Cn1c(=O)n([C@H](C)C(=O)NC2CCC2)c(=O)c2c(C)c(-n3nccn3)sc21)OCCO` [Compound I-84, (R)—N-cyclobutyl-2-(1-((R)-2-(5-fluoro-2-methoxyphenyl)-2-(2-hydroxyethoxy)ethyl)-5-methyl-2,4-dioxo-6-(2H-1,2,3-triazol-2-yl)-1,4-dihydrothieno[2,3-d]pyrimidin-3(2H)-yl)propanamide], the IC90 in assay [1] (setting [9]) came out at 0.08 µg/mL (≈ 0.136 µM); in assay [1] (setting [10]) it was 0.08 µg/mL (≈ 0.136 µM); in assay [2] (setting [6]), 0.08 µg/mL (≈ 0.136 µM); in assay [2] (setting [11]), 0.08 µg/mL (≈ 0.136 µM); in assay [3] (setting [12]), 2 µg/mL (≈ 3.41 µM); in assay [3] (setting [13]) it was 10 µg/mL (≈ 17 µM).
For the compound `COc1ccc(F)cc1[C@H](Cn1c(=O)n([C@H](C)C(=O)N(C)C(C)C)c(=O)c2c(C)c(-n3nccn3)sc21)OCCO` [Compound I-85, (R)-2-(1-((R)-2-(5-fluoro-2-methoxyphenyl)-2-(2-hydroxy-ethoxy)ethyl)-5-methyl-2,4-dioxo-6-(2H-1,2,3-triazol-2-yl)-1,4-dihydro-thieno[2,3-d]pyrimidin-3(2H)-yl)-N-isopropyl-N-methylpropanamide], the IC90 in assay [1] (setting [9]) amounted to 0.08 µg/mL (≈ 0.136 µM); in assay [1] (setting [10]), 0.08 µg/mL (≈ 0.136 µM); in assay [2] (setting [6]), 0.08 µg/mL (≈ 0.136 µM); in assay [2] (setting [11]), 0.08 µg/mL (≈ 0.136 µM); in assay [3] (setting [12]) it was 2 µg/mL (≈ 3.4 µM); in assay [3] (setting [13]), 10 µg/mL (≈ 17 µM).
For the compound `COCCCO[C@@H](Cn1c(=O)n([C@@H](C)C(=O)NC(C)C)c(=O)c2c(C)c(-n3nccn3)sc21)c1cc(F)ccc1OC` [Compound I-86, (S)-2-(1-((R)-2-(5-fluoro-2-methoxyphenyl)-2-(3-methoxy-propoxy)ethyl)-5-methyl-2,4-dioxo-6-(2H-1,2,3-triazol-2-yl)-1,4-dihydrothieno[2,3-d]pyrimidin-3(2H)-yl)-N-isopropylpropanamide], the IC90 in assay [1] (setting [4]) is 10 µg/mL (≈ 16.6 µM); in assay [1] (setting [5]), > 50 µg/mL; in assay [2] it was 0.08 µg/mL (≈ 0.133 µM); in assay [3] (setting [7]), > 50 µg/mL; in assay [3] (setting [8]) it was > 50 µg/mL. Besides, the “Concentration at 90% Inhibition Fm” value in assay [2] (setting [6]) was “AA (compound concentration of 0.08 ppm at 90% inhibition of fungal pathogens)”.
